Data published in US20230220047A1, “PEPTIDES FOR TREATMENT OF SEPSIS AND CANCER” (NORWEGIAN UNIVERSITY OF SCIENCE AND TECHNOLOGY (NTNU), priority 2020, published 2023).
“Also recorded” adds a separate entry of the source.

How the values were obtained:
Assay type in all cases: cell-based, human
[1] = tested on: TLR4; assay: ELISA/Bioplex of LPS-mediated cytokine secretion by THP-1 cells; conditions: for LPS-mediated secretion of IL-18, IL-6, IL-8 and TNF (27-plex Bioplex): 10 μM
Description: (A) Results of LDH assay and ELISAs analysing cytokine secretion after 5 h of stimulation with LPS (graphs show mean values for at least 3 biological replicates). […] In the tables average values are presented based on 3-5 biological replicates for each experiment. […]
TNF in supernatants was detected using a human TNF-alpha DuoSet ELISA (DY210) (R&D Systems); CXCL10 using a DuoSet ELISA (DY266) (R&D Systems); IL-1β using a BD OptEiA human IL-1β ELISA SetII (#557953, BD Biosciences): IFNβ using a VeriKine-HS™ Human Interferon-Beta Serum ELISA Kit (#41415) from PBL Assay Science. Some supernatants were also analysed by multiplex cytokine assay (Bio-Plex; Bio-Rad Laboratories Inc.) for IL-1β, IL-6, IL-8, CXCL10/IP-10. Results are presented as mean and SD for biological replicates for a representative donor (primary human macrophages), or at least three independent experiments for the model cell line THP-1. Statistical significance was evaluated in GraphPad Prizm 5.03. Data distribution was assumed to be normal but this was not formally tested. The difference between the two groups was determined by two-tailed t test.

[2] = tested on: TLR4; assay: Whole blood assay, LPS stimulation
Source text: (§1) […] Results are for at least 6 donors. The Wilcoxon matched-pairs signed rank test was used for statistical analysis between 2 groups in Prizm 8.2.1. In each graph, circles indicate whole blood pre-treated with water, squares indicate blood pre-treated with control peptide (average for treatment with Pen and C3-Pen), and triangles indicate pre-treatment with P7-Pen.
To evaluate the effect of peptides in an ex vivo system, a human whole blood model was used. Peripheral venous blood was drawn from 6 healthy donors into sterile polypropylene tubes (Thermo Scientific™ Nunc™ Biobanking and Cell Culture Cryogenic Tubes) containing the anti-coagulant Lepirudin (Refludan®; Celgene). […] Peptide solution or DPBS was distributed in equal volume (50 μL) to 1.8 mL sterile polypropylene tubes (Thermo Scientific™Nunc™ Biobanking and Cell Culture Cryogenic Tubes). […] Stimulation solutions were made by diluting K12 LPS or CL075 in DPBS to obtain a final concentration in whole blood of 100 ng/mL (LPS) or 1 μg/mL (CL075) after addition of 50 μL stimulation solution or DPBS. […] Tubes were incubated at 37° C. under constant rotation for 4 h. Finally, plasma was isolated from the whole blood specimens by centrifugation, collected in 96 well plates (Corning® 96 Well CellBIND® Microplates), and stored at −20/−80° C. until analysis by multiplex/27-plex cytokine assay or IFNβ ELISA (VeriKine-HS Human Interferon Beta Serum ELISA Kit; pbl Assay Science).

[3] = tested on: TLR8; assay: Whole blood assay, CL075 stimulation
Source text: as §1
To evaluate the effect of peptides in an ex vivo system, a human whole blood model was used. Peripheral venous blood was drawn from 6 healthy donors into sterile polypropylene tubes (Thermo Scientific™ Nunc™ Biobanking and Cell Culture Cryogenic Tubes) containing the anti-coagulant Lepirudin (Refludan®; Celgene). Peptide solutions were made by diluting peptide stocks in DPBS (Dulbecco's Phosphate Buffered Saline with MgCl2 and CaCl2; Sigma-Aldrich) to obtain a final concentration of 140 μM. Peptide solution or DPBS was distributed in equal volume (50 μL) to 1.8 mL sterile polypropylene tubes (Thermo Scientific™Nunc™ Biobanking and Cell Culture Cryogenic Tubes). 250 μL whole blood was then added to the 1.8 mL tubes containing peptide solution or DPBS, and incubated at 37° C. under constant rotation for 1 h (concentration of peptides for pre-incubation: 23.3 μM). Stimulation solutions were made by diluting K12 LPS or CL075 in DPBS to obtain a final concentration in whole blood of 100 ng/mL (LPS) or 1 μg/mL (CL075) after addition of 50 μL stimulation solution or DPBS. Concentration of peptides in whole blood samples was reduced by this to 20 μM. Tubes were incubated at 37° C. under constant rotation for 4 h. Finally, plasma was isolated from the whole blood specimens by centrifugation, collected in 96 well plates (Corning® 96 Well CellBIND® Microplates), and stored at −20/−80° C. until analysis by multiplex/27-plex cytokine assay or IFNβ ELISA (VeriKine-HS Human Interferon Beta Serum ELISA Kit; pbl Assay Science).

Substance	inhibitory activity towards LPS-induced CXCL10, TNF and IL-1β secretion (ELISA) ([1]; 15 μM, 30 min pre-treatment, LPS 100 ng/ml 5 h, relative to P7-Pen)	inhibition of CXCL10 secretion ([1]; 10 μM applied 30 min before or simultaneously with LPS, LPS 6 h)	inhibitory effect on CXCL10 secretion ([1]; 10 μM applied 1 h after addition of LPS)	LPS-mediated secretion of IL-18, IL-6, IL-8 and TNF (27-plex Bioplex) ([1]; 30 min pre-treatment)	TLR4-mediated IFNβ release by whole blood cells ([2]; 20 μM, LPS 100 ng/ml 4 h)	LPS/TLR4-induced TNF, IL-6 and IL-1β secretion ([2]; 20 μM, compared to control peptides)	TLR8-mediated pro-inflammatory cytokine secretion ([3]; 20 μM, CL075)	TLR8-mediated IFNβ release/secretion by whole blood cells ([3]; 20 μM, CL075 1 μg/ml 4 h)	LPS-mediated TNF secretion (ELISA) ([1]; not shown)	LPS-mediated IFNβ secretion by whole blood cells ([2]; pilot assay, 10 μM, LPS 100 ng/ml)	CL075-mediated IFNβ secretion by whole blood cells ([3]; pilot assay, 10 μM, CL075 1 μg/ml)
Ac-ITVAASVTLTGRQIKIWFQNRRMKWKK-NH2 [Peptide P7-A4-Pen]	least effect on peptide activity										
Ac-ITVYASVTLTGRQIKIWFQNRRMKWKK-NH2 [Peptide P7-Pen]		very effective	reduced	inhibitory effect	effectively abrogated	significant reduction	no significant effect	effectively abrogated; also recorded: inhibited			
Ac-ITVYASVTLTGRRRRRRRRRRR-NH2 [Peptide P7-Arg11]				inhibitory effect					prevented TNF secretion	inhibited	inhibited
